`Cc1nc2ccc(C(=O)NS(=O)(=O)c3ccc(C(F)(F)F)cc3)cc2n1Cc1ccccc1Cl` [Example 166, 1-(2-Chlorobenzyl)-2-Methyl-6-[4(Trifluoromethyl)Benzenesulfonylcarbamoyl]Benzimidazole]: the melting point (commonly the temperature, or range, at which the solid turns liquid) was 288 to 292 °C.
Take `Cc1nc2ccc(C(=O)NS(=O)(=O)c3cccc(Cl)c3)cc2n1Cc1ccccc1Cl` [Example 156, 6-(3-Chlorobenzenesulfonylcarbamoyl)-1-(2-Chlorobenzyl)-2-Methylbenzimidazole]: the melting point was 254.5 to 257.5 °C (dec.).
As for `Cc1nc2ccc(C(=O)NS(=O)(=O)Cc3ccccc3)cc2n1Cc1ccccc1Cl` [Example 163, 1-(2-Chlorobenzyl)-2-Methyl-6-(α-Toluenesulfonylcarbamoyl)Benzimidazole], the melting point lay in the range of 193 to 196 °C.
The figure for `CCCc1nc2ccc(C(=O)N(C)c3ccccn3)cc2n1Cc1ccccc1Cl` [Example 37, 1-(2-Chlorobenzyl)-6-[N-Methyl-N-(2-Pyridyl)carbamoyl]-2-n-Propylbenzimidazole] is 143 to 146 °C; for `CCCCS(=O)(=O)NC(=O)c1ccc2nc(C)n(Cc3ccc(C(=O)c4ccccc4)cc3)c2c1` [Example 300, 1-[(4-Benzoyl)benzyl]-6-(1-Butanesulfonylcarbamoyl)-2-Methylbenzimidazole] it is 111 to 112.4 °C.
For `COc1ccc(S(=O)(=O)NC(=O)c2ccc3nc(C)n(Cc4ccccc4Cl)c3c2)cc1` [Example 162, 1-(2-Chlorobenzyl)-6-(4-Methoxybenzenesulfonylcarbamoyl)-2-Methylbenzimidazole], the melting point was 271 to 274 °C.
`Nc1nc2ccc(C(=O)NS(=O)(=O)c3ccccc3)cc2n1Cc1ccc(-c2ccccc2)cc1` [Example 172, 2-Amino-6-Benzenesulfonylcarbamoyl-1-(Biphenyl-4-ylmethyl)Benzimidazole] displayed a melting point of 352.5 to 355 °C.
`Cc1nc2ccc(C(=O)NS(=O)(=O)c3ccccc3)cc2n1Cc1ccccc1Cl` [Example 111, 6-Benzenesulfonylcarbamoyl-1-(2-Chlorobenzyl)-2-Methylbenzimidazole] came in with a melting point of 273.5 to 274.3 °C.
On to `CCCCc1nc2ccc(C(=O)N(C)Cc3ccccn3)cc2n1Cc1ccccc1F` [Example 40, 2-n-Butyl-1-(2-Fluorobenzyl)-6-[N-Methyl-N-(2-Pyridylmethyl)Carbamoyl]Benzimidazole], for which the melting point fell in the range of 97 to 100 °C.
The figure for `O=C(Nc1ccccn1)c1ccc2nc(C3CC3)n(Cc3ccccc3Cl)c2c1` [Example 28, 1-(2-Chlorobenzyl)-2-Cyclopropyl-6-(2-Pyridylcarbamoyl)Benzimidazole] is 206 to 209 °C; for `O=C(O)c1ccc2nc(C3CC3)n(Cc3ccccc3F)c2c1` [Example 18, 6-Carboxy-2-Cyclopropyl-1-(2-Fluorobenzyl)Benzimidazole] it is 224 to 229 °C.
In the case of `Cc1nc2ccc(CCC(=O)NS(=O)(=O)c3ccccc3)cc2n1Cc1ccccc1Cl` [Example 200, N-Benzenesulfonyl-3-[1-(2-chlorobenzyl)-2-methylbenzimidazole-6-yl]propionamide], the melting point was in the range of 229.8 to 233 °C.
On to `Cc1nc2ccc(C(=O)NS(=O)(=O)c3ccc([N+](=O)[O-])cc3)cc2n1Cc1ccccc1Cl` [Example 165, 1-(2-Chlorobenzyl)-2-Methyl-6-(4-Nitrobenzenesulfonylcarbamoyl)Benzimidazole], for which the melting point is 330 to 332 °C.
`Cc1nc2ccc(C=CC(=O)NS(=O)(=O)c3ccccc3)cc2n1Cc1ccccc1Cl` [Example 126, N-Benzenesulfonyl-3-[1-(2-Chlorobenzyl)-2-Methylbenzimidazole-6-yl]Acrylamide] showed a melting point of 243.1 to 244.3 °C.
`Cc1ccc(C)c(S(=O)(=O)NC(=O)c2ccc3nc(C)n(Cc4ccccc4Cl)c3c2)c1` [Example 164, 1-(2-Chlorobenzyl)-6-(2,5-Dimethylbenzenesulfonylcarbamoyl)-2-Methylbenzimidazole]: the melting point lay within 266.5 to 267.5 °C.
`Cc1nc2ccc(C(=O)NS(=O)(=O)c3ccccc3Cl)cc2n1Cc1ccccc1Cl.N` [Example 167, 6-(2-Chlorobenzenesulfonylcarbamoyl)-1-(2-Chlorobenzyl)-2-Methylbenzimidazole Ammonium Salt] had a melting point of 264 to 267 °C.
`Cc1nc2ccc(C(=O)NS(=O)(=O)C(F)(F)F)cc2n1Cc1ccccc1Cl.Cl`: the melting point was 332 to 335 °C (dec.).

(Values after patent publication US20020082280A1, “Method of inhibiting neoplastic cells with benzimidazole derivatives” (priority 1998, published 2002).)
